Assay results from PubChem BioAssay (NCI).
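Step 1: Grow cells in 96-well plates. Step 2: Expose to compound for 48 hours at 5 concentrations. Step 3: Interpolate endpoints linearly; if unreached, use highest concentration. Here, GI50 denotes the concentration required for 50% inhibition of growth. The concentration for full growth arrest is given as TGI.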

Tests used:
Test in all cases: growth of human tumour cells (NCI), 48 h
786-0 renal = test system: 786-0 renal
A498 renal = test system: A498 renal
ACHN renal = test system: ACHN renal
BT-549 breast = test system: BT-549 breast
CAKI-1 renal = test system: CAKI-1 renal
CCRF-CEM leukemia = test system: CCRF-CEM leukemia
DU-145 prostate = test system: DU-145 prostate
EKVX NSCLC = test system: EKVX NSCLC
HCC-2998 colon = test system: HCC-2998 colon
HL-60(TB) leukemia = test system: HL-60(TB) leukemia
HOP-62 NSCLC = test system: HOP-62 NSCLC
HOP-92 NSCLC = test system: HOP-92 NSCLC
HS 578T breast = test system: HS 578T breast
IGROV1 ovarian = test system: IGROV1 ovarian
K-562 leukemia = test system: K-562 leukemia
KM12 colon = test system: KM12 colon
LOX IMVI melanoma = test system: LOX IMVI melanoma
M14 melanoma = test system: M14 melanoma
MALME-3M melanoma = test system: MALME-3M melanoma
MDA-MB-231 breast = test system: MDA-MB-231 breast
MDA-MB-435 = test system: MDA-MB-435
MDA-MB-468 breast = test system: MDA-MB-468 breast
MOLT-4 leukemia = test system: MOLT-4 leukemia
NCI-H226 lung = test system: NCI-H226 lung
NCI-H23 lung = test system: NCI-H23 lung
NCI-H460 lung = test system: NCI-H460 lung
NCI-H522 lung = test system: NCI-H522 lung
NCI/ADR-RES ovarian = test system: NCI/ADR-RES ovarian
OVCAR-4 ovarian = test system: OVCAR-4 ovarian
OVCAR-5 ovarian = test system: OVCAR-5 ovarian
PC-3 prostate = test system: PC-3 prostate
SF-268 CNS = test system: SF-268 CNS
SF-295 CNS = test system: SF-295 CNS
SF-539 CNS = test system: SF-539 CNS
SK-MEL-2 melanoma = test system: SK-MEL-2 melanoma
SK-MEL-28 melanoma = test system: SK-MEL-28 melanoma
SK-MEL-5 melanoma = test system: SK-MEL-5 melanoma
SK-OV-3 ovarian = test system: SK-OV-3 ovarian
SN12C renal = test system: SN12C renal
SNB-19 CNS = test system: SNB-19 CNS
SNB-75 CNS = test system: SNB-75 CNS
SR leukemia = test system: SR leukemia
SW-620 colon = test system: SW-620 colon
T-47D breast = test system: T-47D breast
TK-10 renal = test system: TK-10 renal
U251 CNS = test system: U251 CNS
UACC-257 melanoma = test system: UACC-257 melanoma
UACC-62 melanoma = test system: UACC-62 melanoma
UO-31 renal = test system: UO-31 renal

For C=C(C)[C@@H]1CC[C@]2(C)[C@H](CC=C3[C@@H]4CC(C)(C)CC[C@]4(C(=O)N4CCOCC4)CC[C@]32C)[C@@]1(C)CCCN, the GI50 (786-0 renal) was 1.18 µM, the TGI (786-0 renal) was 2.34 µM and the GI50 (A498 renal) was 1.41 µM. For the same compound, the TGI (A498 renal) was 3.1 µM, the GI50 (ACHN renal) was 1.34 µM and the TGI (ACHN renal) was 2.4 µM. The GI50 (BT-549 breast) was 9.16 µM, the TGI (BT-549 breast) was 24 µM and the GI50 (CAKI-1 renal) was 1.23 µM. The TGI (CAKI-1 renal) was 2.25 µM, the GI50 (CCRF-CEM leukemia) was 1.33 µM and the TGI (CCRF-CEM leukemia) was 3.68 µM. The GI50 (DU-145 prostate) was 1.5 µM, the TGI (DU-145 prostate) was 2.96 µM and the GI50 (EKVX NSCLC) was 1.37 µM. It also gave a TGI (EKVX NSCLC) of 2.88 µM, a GI50 (HCC-2998 colon) of 1.22 µM and a TGI (HCC-2998 colon) of 2.25 µM. It also gave a GI50 (HL-60(TB) leukemia) of 1 µM, a TGI (HL-60(TB) leukemia) of 3.32 µM and a GI50 (HOP-62 NSCLC) of 1.39 µM. The TGI (HOP-62 NSCLC) was 2.83 µM, the GI50 (HOP-92 NSCLC) was 1.25 µM and the TGI (HOP-92 NSCLC) was 2.71 µM. The GI50 (HS 578T breast) was 1.4 µM, the TGI (HS 578T breast) was 2.99 µM and the GI50 (IGROV1 ovarian) was 1.56 µM. It also gave a TGI (IGROV1 ovarian) of 2.99 µM, a GI50 (K-562 leukemia) of 1.96 µM and a TGI (K-562 leukemia) of 73.5 µM. For the same compound, the GI50 (KM12 colon) was 1.35 µM, the TGI (KM12 colon) was 2.6 µM and the GI50 (LOX IMVI melanoma) was 1.25 µM. For the same compound, the TGI (LOX IMVI melanoma) was 2.26 µM, the GI50 (M14 melanoma) was 1.43 µM and the TGI (M14 melanoma) was 3.25 µM. For the same compound, the GI50 (MALME-3M melanoma) was 1.31 µM, the TGI (MALME-3M melanoma) was 2.38 µM and the GI50 (MDA-MB-231 breast) was 1.37 µM. The TGI (MDA-MB-231 breast) was 2.43 µM, the GI50 (MDA-MB-435) was 1.22 µM and the TGI (MDA-MB-435) was 2.31 µM. It also gave a GI50 (MDA-MB-468 breast) of 1.2 µM, a TGI (MDA-MB-468 breast) of 2.33 µM and a GI50 (MOLT-4 leukemia) of 1.73 µM. The TGI (MOLT-4 leukemia) was 4.62 µM, the GI50 (NCI-H226 lung) was 2.78 µM and the TGI (NCI-H226 lung) was 16.5 µM. The GI50 (NCI-H23 lung) was 1.31 µM, the TGI (NCI-H23 lung) was 2.45 µM and the GI50 (NCI-H460 lung) was 1.19 µM. The TGI (NCI-H460 lung) was 2.25 µM, the GI50 (NCI-H522 lung) was 1.34 µM and the TGI (NCI-H522 lung) was 2.55 µM. For the same compound, the GI50 (NCI/ADR-RES ovarian) was 1.44 µM, the TGI (NCI/ADR-RES ovarian) was 2.77 µM and the GI50 (OVCAR-4 ovarian) was 1.38 µM. For the same compound, the TGI (OVCAR-4 ovarian) was 2.69 µM, the GI50 (OVCAR-5 ovarian) was 1.38 µM and the TGI (OVCAR-5 ovarian) was 2.69 µM. The GI50 (PC-3 prostate) was 1.49 µM, the TGI (PC-3 prostate) was 3.87 µM and the GI50 (SF-268 CNS) was 1.98 µM. The TGI (SF-268 CNS) was 6.22 µM, the GI50 (SF-295 CNS) was 1.3 µM and the TGI (SF-295 CNS) was 2.4 µM. The GI50 (SF-539 CNS) was 1.26 µM, the TGI (SF-539 CNS) was 2.28 µM and the GI50 (SK-MEL-2 melanoma) was 1.43 µM. It also gave a TGI (SK-MEL-2 melanoma) of 2.96 µM, a GI50 (SK-MEL-28 melanoma) of 1.24 µM and a TGI (SK-MEL-28 melanoma) of 2.28 µM. For the same compound, the GI50 (SK-MEL-5 melanoma) was 1.56 µM, the TGI (SK-MEL-5 melanoma) was 3.47 µM and the GI50 (SK-OV-3 ovarian) was 7.35 µM. The TGI (SK-OV-3 ovarian) was 21.3 µM, the GI50 (SN12C renal) was 1.29 µM and the TGI (SN12C renal) was 2.44 µM. For the same compound, the GI50 (SNB-19 CNS) was 2.12 µM, the TGI (SNB-19 CNS) was 6.82 µM and the GI50 (SNB-75 CNS) was 2 µM. For the same compound, the TGI (SNB-75 CNS) was 7.89 µM, the GI50 (SR leukemia) was 0.407 µM and the TGI (SR leukemia) was 3.09 µM. The GI50 (SW-620 colon) was 1.19 µM, the TGI (SW-620 colon) was 2.27 µM and the GI50 (T-47D breast) was 1.86 µM. It also gave a TGI (T-47D breast) of 4.7 µM, a GI50 (TK-10 renal) of 1.64 µM and a TGI (TK-10 renal) of 4.36 µM. The GI50 (U251 CNS) was 1.28 µM, the TGI (U251 CNS) was 2.39 µM and the GI50 (UACC-257 melanoma) was 1.29 µM. It also gave a TGI (UACC-257 melanoma) of 2.61 µM, a GI50 (UACC-62 melanoma) of 1.56 µM and a TGI (UACC-62 melanoma) of 3.56 µM. It also gave a GI50 (UO-31 renal) of 1.35 µM and a TGI (UO-31 renal) of 3.2 µM.
